Reference: ChEMBL document CHEMBL1201862, “PubChem BioAssay data set” (2004)
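Interpolation was linear, between the two tested concentrations surrounding the appropriate level; five concentrations were tested over 48 hours in 96-well plates. Abbreviation: GI50, concentration required for 50% inhibition of growth.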 Activity calls are given as the source filed them. No stated cut-off is given here; in the data, active = GI50 up to about 1.1 µM and inactive = higher.

Assays:
Assay in all cases: inhibition of tumour cell growth, NCI panel, 48 h
A498 = test system: A498
HOP-92 = test system: HOP-92
SW-620 = test system: SW-620
SN12C = test system: SN12C
SNB-75 = test system: SNB-75
COLO 205 = test system: COLO 205
SK-MEL-28 = test system: SK-MEL-28
MOLT-4 = test system: MOLT-4
OVCAR-5 = test system: OVCAR-5
KM12 = test system: KM12
SNB-19 = test system: SNB-19
NCI-H226 = test system: NCI-H226
HL-60 = test system: HL-60
ACHN = test system: ACHN
U-251 = test system: U-251
OVCAR-4 = test system: OVCAR-4

Measured: GI50

O=C(Nc1ccc(Cl)cc1)C1C(=O)C(=O)N(c2ccc(Cl)cc2)C1=O (configuration not stated)
inactive: A498 60.7 µM | HOP-92 29.1 µM | SW-620 > 100 µM | SN12C 81.1 µM | SNB-75 > 100 µM | COLO 205 > 100 µM | SK-MEL-28 > 100 µM | MOLT-4 71.3 µM | OVCAR-5 > 100 µM | KM12 > 100 µM | SNB-19 76.7 µM | NCI-H226 > 100 µM | HL-60 > 100 µM | ACHN 89.9 µM | U-251 58.6 µM

Cc1ccc(Cc2c(=O)[nH]nc3ccccc23)cc1
inactive: A498 > 100 µM | HOP-92 89.7 µM | SW-620 > 100 µM | OVCAR-4 > 100 µM | SN12C > 100 µM | SNB-75 79.8 µM | COLO 205 > 100 µM | SK-MEL-28 > 100 µM | MOLT-4 > 100 µM | OVCAR-5 > 100 µM | KM12 > 100 µM | SNB-19 > 100 µM | NCI-H226 > 100 µM | ACHN > 100 µM

O=c1ccn(/C=C/C(O)C(O)CO)c(=O)[nH]1 (configuration not stated)
inactive: A498 > 100 µM | SW-620 > 100 µM | OVCAR-4 > 100 µM | SN12C > 100 µM | SNB-75 > 100 µM | COLO 205 > 100 µM | SK-MEL-28 > 100 µM | MOLT-4 > 100 µM | OVCAR-5 > 100 µM | KM12 21.7 µM | SNB-19 > 100 µM | NCI-H226 > 100 µM | HL-60 > 100 µM | ACHN > 100 µM | U-251 > 100 µM

Nc1ccc(CCN2CCN(c3cccc(C(F)(F)F)c3)CC2)cc1
inactive: A498 80.9 µM | HOP-92 54.8 µM | SN12C > 100 µM | SNB-75 > 100 µM | COLO 205 > 100 µM | SK-MEL-28 > 100 µM | MOLT-4 4.38 µM | OVCAR-5 > 100 µM | KM12 > 100 µM | SNB-19 > 100 µM | NCI-H226 91.4 µM | HL-60 9.51 µM | ACHN > 100 µM | U-251 91.2 µM

CCC1CC(C)=CCN1S(=O)(=O)c1ccc(C)cc1 (configuration not stated)
inactive: A498 42.6 µM | SW-620 > 10 µM | OVCAR-4 39 µM | SN12C 9.57 µM | SNB-75 13.9 µM | COLO 205 16.5 µM | MOLT-4 28.2 µM | OVCAR-5 28 µM | KM12 23.4 µM | SNB-19 28.8 µM | NCI-H226 28.2 µM | HL-60 3.61 µM | ACHN 37 µM

COc1ccc(/C=N/N=C(\N)NO)c(OC)c1C
inactive: A498 25.4 µM | HOP-92 19.8 µM | SW-620 22.8 µM | OVCAR-4 22.9 µM | SN12C 26 µM | COLO 205 10.2 µM | SK-MEL-28 5.57 µM | MOLT-4 22.2 µM | OVCAR-5 2.47 µM | KM12 29.2 µM | SNB-19 65.2 µM | NCI-H226 15.2 µM | ACHN 11.1 µM | U-251 45.1 µM

O=C(N/C(=C\c1ccc([N+](=O)[O-])cc1)c1nc2ccccc2s1)c1ccccc1
inactive: A498 31.3 µM | HOP-92 23.6 µM | SW-620 26.7 µM | OVCAR-4 29.9 µM | SN12C 20.9 µM | SNB-75 26.7 µM | COLO 205 58.3 µM | SK-MEL-28 39.5 µM | MOLT-4 19.1 µM | OVCAR-5 54.7 µM | KM12 22.5 µM | SNB-19 32.8 µM | ACHN 29.2 µM | U-251 31.6 µM

CCOC(=O)/C(O)=C(/C(=O)OC)c1ccc(Cl)cc1
inactive: A498 > 100 µM | SW-620 > 100 µM | OVCAR-4 > 100 µM | SN12C > 100 µM | SNB-75 > 100 µM | COLO 205 > 100 µM | SK-MEL-28 > 100 µM | MOLT-4 > 100 µM | OVCAR-5 > 100 µM | KM12 > 100 µM | SNB-19 > 100 µM | ACHN > 100 µM | U-251 > 100 µM
